Source: ChEMBL document CHEMBL1127242, “Conformationally constrained HIV-1 protease inhibitors” (Bioorg Med Chem Lett, 1994)

Target: Human immunodeficiency virus type 1 protease (Human immunodeficiency virus 1, UniProt Q72874)
Assay: Compound was tested for inhibitory activity against Human immunodeficiency virus (HIV-1) protease

Row | Compound | IC50 [nM]
1 | C[C@@H]1CC[C@@H](O)[C@H]1N1CC[C@@](Cc2ccccc2)(C[C@H](O)[C@H](Cc2ccccc2)NC(=O)OC(C)(C)C)C1=O | 14
2 | CC(C)(C)OC(=O)N[C@@H](Cc1ccccc1)[C@@H](O)CC1(Cc2ccccc2)CCN([C@H]2c3ccccc3C[C@H]2O)C1=O (single isomer, unassigned) | 37
3 | CC(C)(C)OC(=O)N[C@@H](Cc1ccccc1)[C@@H](O)C[C@]1(Cc2ccccc2)CCN([C@@H]2CS(=O)(=O)Cc3ccccc32)C1=O | 17
4 | CC(C)[C@@H](CO)N1CC[C@@](Cc2ccccc2)(C[C@H](O)[C@H](Cc2ccccc2)NC(=O)OC(C)(C)C)C1=O | 35
5 | CC(C)(C)OC(=O)N[C@@H](Cc1ccccc1)[C@@H](O)C[C@]1(Cc2ccccc2)CCN([C@@H]2CSCc3ccccc32)C1=O | 111
6 | O=C(N[C@@H](Cc1ccccc1)[C@@H](O)C[C@@H](Cc1ccccc1)C(=O)N[C@H]1c2ccccc2C[C@H]1O)O[C@H]1CCOC1 | 0.06
7 | O=C(N[C@@H](Cc1ccccc1)[C@@H](O)C[C@]1(Cc2ccccc2)CCN([C@@H]2CS(=O)(=O)Cc3ccccc32)C1=O)O[C@H]1CCOC1 | 1.8
